This note sets out measurements from PubChem BioAssay AID1259407 (Chemical Carcinogenesis Research Information System (CCRIS), 2018).

Calls of active or inactive are those of the source. How the calls were made is not given here.

The series relates to CCRIS mutagenicity, Ames/micronucleus/aberration tests. As to the kind of experiment: CCRIS mutagenicity studies.
[1] abbreviates: Test System: AMES SALMONELLA TYPHIMURIUM, Strain/Indicator: TA98, Metabolic Activation: NONE, Method: PREINCUBATION
Setting [2] is: Test System: AMES SALMONELLA TYPHIMURIUM, Strain/Indicator: TA100, Metabolic Activation: NONE, Method: PREINCUBATION
The mark [3] stands for this setting: Test System: AMES SALMONELLA TYPHIMURIUM, Strain/Indicator: TA1535, Metabolic Activation: NONE, Method: PREINCUBATION
Setting [4] is: Test System: AMES SALMONELLA TYPHIMURIUM, Strain/Indicator: TA1537, Metabolic Activation: NONE, Method: PREINCUBATION
Setting [5] is: Test System: AMES SALMONELLA TYPHIMURIUM, Strain/Indicator: TA98, Metabolic Activation: NONE, Method: STANDARD PLATE.
Setting [6] is: Test System: AMES SALMONELLA TYPHIMURIUM, Strain/Indicator: TA100, Metabolic Activation: NONE, Method: STANDARD PLATE.
The mark [7] stands for this setting: Test System: AMES SALMONELLA TYPHIMURIUM, Strain/Indicator: TA98, Metabolic Activation: RAT, LIVER, S-9, AROCLOR 1254, Method: STANDARD PLATE.

On to `CN[C@@H]1[C@H](O[C@H]2[C@H](O[C@H]3[C@H](O)[C@@H](O)[C@H](N=C(N)N)[C@@H](O)[C@@H]3N=C(N)N)O[C@@H](C)[C@]2(O)C=O)O[C@@H](CO)[C@H](O)[C@H]1O`, for which the mutagenic call is “inactive; negative” (Test System: AMES SALMONELLA TYPHIMURIUM, Strain/Indicator: TA98, Metabolic Activation: HAMSTER, LIVER, S-9, AROCLOR 1254, Method: PREINCUBATION); “inactive; negative” under setting [1]; “inactive; negative” (Test System: AMES SALMONELLA TYPHIMURIUM, Strain/Indicator: TA98, Metabolic Activation: RAT, LIVER, S-9, AROCLOR 1254, Method: PREINCUBATION); “inactive; negative” (Test System: AMES SALMONELLA TYPHIMURIUM, Strain/Indicator: TA100, Metabolic Activation: HAMSTER, LIVER, S-9, AROCLOR 1254, Method: PREINCUBATION); “inactive; negative” under setting [2]; “inactive; negative” (Test System: AMES SALMONELLA TYPHIMURIUM, Strain/Indicator: TA100, Metabolic Activation: RAT, LIVER, S-9, AROCLOR 1254, Method: PREINCUBATION). In addition, the mutagenic call is, setting by setting: (Test System: AMES SALMONELLA TYPHIMURIUM, Strain/Indicator: TA102, Metabolic Activation: NONE, Method: STANDARD PLATE) “active; positive”; (Test System: AMES SALMONELLA TYPHIMURIUM, Strain/Indicator: TA102, Metabolic Activation: RAT, LIVER, S-9, AROCLOR 1254, Method: STANDARD PLATE) “active; positive”; (Test System: AMES SALMONELLA TYPHIMURIUM, Strain/Indicator: TA1535, Metabolic Activation: HAMSTER, LIVER, S-9, AROCLOR 1254, Method: PREINCUBATION) “inactive; negative”; under setting [3], “inactive; negative”; (Test System: AMES SALMONELLA TYPHIMURIUM, Strain/Indicator: TA1535, Metabolic Activation: RAT, LIVER, S-9, AROCLOR 1254, Method: PREINCUBATION) “inactive; negative”; (Test System: AMES SALMONELLA TYPHIMURIUM, Strain/Indicator: TA1537, Metabolic Activation: HAMSTER, LIVER, S-9, AROCLOR 1254, Method: PREINCUBATION) “inactive; negative”. In addition, the mutagenic call was “inactive; negative” under setting [4]; “inactive; negative” (Test System: AMES SALMONELLA TYPHIMURIUM, Strain/Indicator: TA1537, Metabolic Activation: RAT, LIVER, S-9, AROCLOR 1254, Method: PREINCUBATION); “inactive; negative” (Test System: AMES SALMONELLA TYPHIMURIUM, Strain/Indicator: TA2638A, Metabolic Activation: NONE, Method: STANDARD PLATE).

Consider `C=Cc1ccccc1Cl`, for which the mutagenic call reads like this: (Test System: AMES SALMONELLA TYPHIMURIUM, Strain/Indicator: TA97, Metabolic Activation: HAMSTER, LIVER, S-9, AROCLOR 1254 (10 OR 30%), Method: PREINCUBATION) “inactive; negative”; (Test System: AMES SALMONELLA TYPHIMURIUM, Strain/Indicator: TA97, Metabolic Activation: NONE, Method: PREINCUBATION) “inactive; negative”; (Test System: AMES SALMONELLA TYPHIMURIUM, Strain/Indicator: TA97, Metabolic Activation: RAT, LIVER, S-9, AROCLOR 1254 (10 OR 30%), Method: PREINCUBATION) “inactive; negative”; (Test System: AMES SALMONELLA TYPHIMURIUM, Strain/Indicator: TA98, Metabolic Activation: HAMSTER, LIVER, S-9, AROCLOR 1254 (10 OR 30%), Method: PREINCUBATION) “inactive; negative”; under setting [1], “inactive; negative”; (Test System: AMES SALMONELLA TYPHIMURIUM, Strain/Indicator: TA98, Metabolic Activation: RAT, LIVER, S-9, AROCLOR 1254 (10 OR 30%), Method: PREINCUBATION) “inactive; negative”. Moreover, the mutagenic call is “inactive; negative” (Test System: AMES SALMONELLA TYPHIMURIUM, Strain/Indicator: TA100, Metabolic Activation: HAMSTER, LIVER, S-9, AROCLOR 1254 (10 OR 30%), Method: PREINCUBATION); “inactive; negative” under setting [2]; “inactive; negative” (Test System: AMES SALMONELLA TYPHIMURIUM, Strain/Indicator: TA100, Metabolic Activation: RAT, LIVER, S-9, AROCLOR 1254 (10 OR 30%), Method: PREINCUBATION); “inactive; negative” (Test System: AMES SALMONELLA TYPHIMURIUM, Strain/Indicator: TA1535, Metabolic Activation: HAMSTER, LIVER, S-9, AROCLOR 1254 (10 OR 30%), Method: PREINCUBATION); “inactive; negative” under setting [3]; “inactive; negative” (Test System: AMES SALMONELLA TYPHIMURIUM, Strain/Indicator: TA1535, Metabolic Activation: RAT, LIVER, S-9, AROCLOR 1254 (10 OR 30%), Method: PREINCUBATION).

As for `O=C(O)c1ccc(O)cc1`, the mutagenic call runs as follows: under setting [1], “inactive; negative”; under setting [5], “inactive; negative”; (Test System: AMES SALMONELLA TYPHIMURIUM, Strain/Indicator: TA98, Metabolic Activation: RAT LIVER S-9, PHENOBARBITAL AND BETA-NAPHTHOFLAVONE, Method: PREINCUBATION) “inactive; negative”; under setting [2], “inactive; negative”; under setting [6], “inactive; negative”; (Test System: AMES SALMONELLA TYPHIMURIUM, Strain/Indicator: TA100, Metabolic Activation: RAT LIVER S-9, PHENOBARBITAL AND BETA-NAPHTHOFLAVONE, Method: PREINCUBATION) “inactive; negative”. Moreover, the mutagenic call (Test System: AMES SALMONELLA TYPHIMURIUM, Strain/Indicator: TA102, Metabolic Activation: NONE, Method: PREINCUBATION) was “inactive; negative”; the mutagenic call (Test System: AMES SALMONELLA TYPHIMURIUM, Strain/Indicator: TA102, Metabolic Activation: RAT LIVER S-9, PHENOBARBITAL AND BETA-NAPHTHOFLAVONE, Method: PREINCUBATION) was “inactive; negative”; the mutagenic call (Test System: AMES SALMONELLA TYPHIMURIUM, Strain/Indicator: TA104, Metabolic Activation: NONE, Method: PREINCUBATION) was “inactive; negative”; the mutagenic call (Test System: AMES SALMONELLA TYPHIMURIUM, Strain/Indicator: TA104, Metabolic Activation: RAT LIVER S-9, PHENOBARBITAL AND BETA-NAPHTHOFLAVONE, Method: PREINCUBATION) was “inactive; negative”; the mutagenic call under setting [3] is “inactive; negative”; the mutagenic call (Test System: AMES SALMONELLA TYPHIMURIUM, Strain/Indicator: TA1535, Metabolic Activation: RAT LIVER S-9, PHENOBARBITAL AND BETA-NAPHTHOFLAVONE, Method: PREINCUBATION) was “inactive; negative”. Further, the mutagenic call reads like this: under setting [4], “inactive; negative”; (Test System: AMES SALMONELLA TYPHIMURIUM, Strain/Indicator: TA1537, Metabolic Activation: RAT LIVER S-9, PHENOBARBITAL AND BETA-NAPHTHOFLAVONE, Method: PREINCUBATION) “inactive; negative”; (Test System: E. COLI, Strain/Indicator: CM561 LEXA, Metabolic Activation: NONE, Method: STANDARD PLATE) “inactive; negative”; (Test System: E. COLI, Strain/Indicator: CM611 UVRA/LEXA, Metabolic Activation: NONE, Method: STANDARD PLATE) “inactive; negative”; (Test System: E. COLI, Strain/Indicator: WP2 UVRA, Metabolic Activation: NONE, Method: STANDARD PLATE) “inactive; negative”; (Test System: E.COLI, Strain/Indicator: WP2UVRA/PKM101, Metabolic Activation: NONE, Method: PREINCUBATION) “inactive; negative”. Further, the mutagenic call by setting is: (Test System: E.COLI, Strain/Indicator: WP2UVRA/PKM101, Metabolic Activation: RAT LIVER S-9, PHENOBARBITAL AND BETA-NAPHTHOFLAVONE, Method: PREINCUBATION) “inactive; negative”; (Test System: E.COLI, Strain/Indicator: WP2UVRA, Metabolic Activation: NONE, Method: PREINCUBATION) “inactive; negative”; (Test System: E.COLI, Strain/Indicator: WP2UVRA, Metabolic Activation: RAT LIVER S-9, PHENOBARBITAL AND BETA-NAPHTHOFLAVONE, Method: PREINCUBATION) “inactive; negative”.

`NC(Cc1ccc(O)cc1)C(=O)O` (stereo unspecified): the mutagenic call by setting is: under setting [5], “inactive; negative”; under setting [7], “inactive; negative”; under setting [6], “inactive; negative”; (Test System: AMES SALMONELLA TYPHIMURIUM, Strain/Indicator: TA100, Metabolic Activation: RAT, LIVER, S-9, AROCLOR 1254, Method: STANDARD PLATE) “inactive; negative”.

Turning to `O=[N+]([O-])c1ccc2ccc3cccc4c(O)cc1c2c34`, the mutagenic call is “active; positive” under setting [5] and “active; positive” under setting [7].

On to `COC(=O)c1ccco1`, for which the mutagenic call is “inactive; negative” under setting [5] and “inactive; negative” under setting [6].
